According to patent publication US10881634B2, “Method for treatment or prevention of a disease associated with a decrease in bone mass and method of improving bone architecture and bio mechanical strength of bone” (HUGHES BIOTECHNOLOGY CO., LTD, priority 2017, dated 2021):

Legend:
[1] = test system: ovariectomized rats; assay: Bone index test (in vivo micro-CT scan of caput femoris); design: species or system Wistar rats; details: for BMD level compared with OVX group: week 12
Description: (§1) For ovariectomy rats, bilateral ovariectomy surgery was conducted at 12-week-old under anesthesia with Zoletil 50 (Tiletamine 20-40 mg/kg+Zolazepam 5-10 mg/kg) and Rompun, following the FDA Guidelines and Animal Models for Osteoporosis. For sham surgery rats, set as control group, the surgery performed surgical incision without removing the ovaries was also conducted at 12-week-old under anesthesia with Zoletil 50 (Tiletamine 20-40 mg/kg+Zolazepam 5-10 mg/kg) and Rompun. After ovariectomy surgery, 24 rats of ovariectomy group were randomly divided into 4 groups, namely, 6 rats in each group. After 2 weeks of surgery, the rats were oral administered once a day with different samples based on their groups. The rats were weighed once a week as the basis for the dose of administration for 12 weeks and the weight data were recorded. Finally, when sacrificed, the ovarian of the rats were checked to determine whether the ovariectomy surgery was successful or not, wherein the data of failed ovariectomy rat(s) would be eliminated.
(§2) Total 30 rats were grouped into following 5 groups (i.e., “SHAM”, “OVX”, “G7P”, “G7P2X”, “E2”). • a. SHAM group: sham surgery rats, set as control group, fed with sterile water by oral gavage; • b. OVX group: ovariectomized rats, set as negative control, fed with sterile water by oral gavage; • c. G7P group: ovariectomized rats, administered with 5.33 mg/kg B.W. G7P solution once per day by oral gavage, wherein the dosage was equal to 40 mg/day of the amount of soy isoflavones for adult; • d. G7P2X group: ovariectomized rats, administered with 10.66 mg/kg B.W. G7P once per day by oral gavage, wherein the dosage was equal to 80 mg/day of the amount of soy isoflavones for adult; • e. E2 group: ovariectomized rats, set as positive control, administered with 200 μg/kg B.W. […] once per day by tube feeding.
At week 0, 3, 6, 9 and 12 of the experimental period, in vivo micro-CT scan were conducted on the caput femoris of right leg of the rats by animal CT scanner system Sky Scan 1176 to obtain the 3D tomography image. The obtained 3D tomography images were further analyzed by software so as to obtain bone index data. The data include bone mineral density (BMD) and bone volume-to-total volume ratio (bone volume/total volume, BV/TV, %).

[2] = test system: ovariectomized rats; assay: Bone mechanics analysis (three-point bending test of femur); type: in vivo, Wistar rats; details: week 12
Description: as §1, §2
The bio-mechanical strength of femur was measured using bio-mechanical testing instrument (RT1-TST, Royalty Tec.Ins. Ltd) after removing the soft tissue of left leg. First, the length of the femur was measured by the electronic vernier and the mid-position of the femur was set so as to be the scale standard which must be aligned when compressing the vertical physical strength of the femur by the bone stress meter. The femur was kept moist with physiological saline and fixed on a test bench for a three-point bending test. The motor revolution speed of the bone stress meter was set at 0.05 mm/sec. After the femur was compressed to fracture, the parameters of the bone mechanics analysis obtained by the test system were as follows:
a. maximal load: the force converted from the maximum weight of the record, the unit is Newton;
b. maximal energy: the area integratal under the record curve, the unit is mJ;
d. Young's modulus or elastic modulus (E).

[3] = Weight changes in ovariectomized rat model; type: in vivo, Wistar rats; details: ovariectomized rats; for effect on weight gain caused by estrogen deficiency: 12 weeks
Description: 12-week-old female Wistar rats were used. All of experimental rats were purchased from BioLASCO Taiwan Co., Ltd. The rats were housed in the Experimental Animal Center of Taipei Medical University. The animal room was maintained under temperature of 21-24° C., relative humidity of 30-70%, and 12 hours of automatic light for alternating dark and bright. During the experimental periods, the animals were given adequate drinking water and fed with standard feed. The feeding and surgery were in accordance with the regulations of the Institutional Animal Care and Use Committee (IACUC) of Taipei Medical University.
as §1, §2

[4] = test system: ovariectomized rats; assay: Histopathological observation (H&E staining, caput femoris); type: in vivo, Wistar rats
Description: as §1
Total 30 rats were grouped into following 5 groups (i.e., “SHAM”, “OVX”, “G7P”, “G7P2X”, “E2”). • a. SHAM group: sham surgery rats, set as control group, fed with sterile water by oral gavage; • b. OVX group: ovariectomized rats, set as negative control, fed with sterile water by oral gavage; • c. […]

[5] = test system: ovarietomized rats; details: 3.2 mg/kg B.W. daily oral supplement, 5 months; cited from earlier work
[6] = estradiol 200 μg/kg B.W. once per day oral (E2 group)
[7] = estradiol 200 μg/kg B.W. once per day by tube feeding (E2 group)
[8] = G7P 5.33 mg/kg B.W. once per day oral (G7P group)
[9] = G7P 10.66 mg/kg B.W. once per day oral (G7P2X group)
[10] = G7P 5.33 mg/kg B.W. once per day oral gavage (G7P group)
[11] = G7P 10.66 mg/kg B.W. once per day oral gavage (G7P2X group)

## C[C@]12CC[C@@H]3c4ccc(O)cc4CC[C@H]3[C@@H]1CC[C@@H]2O [E2, 1743 estradiol, reference compound]
[1]; [6]
  BV/TV compared with OVX group: higher than that of the OVX group with statistical significance
  trabecular structure in μCT 3D imaging: a wide but loose trabecular distribution
  BMD level compared with OVX group: significantly higher than that of the OVX group
[2]; [7]
  Max Energy: 76.1 ± 20.3 mJ
  Stiffness: 307.6 ± 55.1 N/mm
  applied load: 176.8 ± 12.1 N
[3]; [6]
  effect on weight gain caused by estrogen deficiency: could reduce the weight gain

## O=c1c(-c2ccc(O)cc2)coc2cc(OP(=O)(O)O)cc(O)c12 [G7P, genistein 7-O-phophate]
[4]; [8]
  bone mineral retention and trabecular bone density in H&E slide: good
[4]; [9]
  bone mineral retention and trabecular bone density in H&E slide: good
[1]; [8]
  BV/TV compared with OVX group: higher than that of the OVX group with statistical significance
  trabecular structure in μCT 3D imaging: much integrated than that of the OVX group
  BMD level compared with OVX group: significantly higher than that of the OVX group
[1]; [9]
  BV/TV compared with OVX group: higher than that of the OVX group with statistical significance
  trabecular structure in μCT 3D imaging: much integrated than that of the OVX group
  BMD level compared with OVX group: significantly higher than that of the OVX group
[2]; [10]
  Elastic modulus: 21.8 ± 2.6 MPa
  Max Energy: 74.4 ± 6.8 mJ
  Stiffness: 326.2 ± 43.2 N/mm
  applied load: 186.5 ± 5.9 N
[2]; [11]
  Elastic modulus: 22.8 ± 6.1 MPa
  Max Energy: 82.7 ± 22.8 mJ
  Stiffness: 319.1 ± 6.1 N/mm
  applied load: 197.5 ± 20.6 N
[3]; [8]
  effect on weight gain caused by estrogen deficiency: did not reverse the weight gain
[3]; G7P 5.33 mg/kg B.W. once per day oral (G7P group), week 12 after surgery
  body weight: ~400 g
[3]; [9]
  effect on weight gain caused by estrogen deficiency: did not reverse the weight gain

## O=c1c(-c2ccc(O)cc2)coc2cc(O)cc(O)c12 [genistein]
[5]
  effect on bone mass, density or architecture: had no effect on bone mass, density or architecture
